Results on twelve molecules are retold here after US9422293B2 (priority 2006, dated 2016).

SMILES strings stand for the structures. Where a name gives a salt, the structure may show the parent alone.

Broadly, the IC50 is the concentration that inhibits the measured activity by half.

The target of the first assay is rat TRPV1 (Rattus norvegicus (Rat), UniProt O35433). As to conditions: read-out: Rat IC50.
rat TRPV1, sequence (O35433 whole entry): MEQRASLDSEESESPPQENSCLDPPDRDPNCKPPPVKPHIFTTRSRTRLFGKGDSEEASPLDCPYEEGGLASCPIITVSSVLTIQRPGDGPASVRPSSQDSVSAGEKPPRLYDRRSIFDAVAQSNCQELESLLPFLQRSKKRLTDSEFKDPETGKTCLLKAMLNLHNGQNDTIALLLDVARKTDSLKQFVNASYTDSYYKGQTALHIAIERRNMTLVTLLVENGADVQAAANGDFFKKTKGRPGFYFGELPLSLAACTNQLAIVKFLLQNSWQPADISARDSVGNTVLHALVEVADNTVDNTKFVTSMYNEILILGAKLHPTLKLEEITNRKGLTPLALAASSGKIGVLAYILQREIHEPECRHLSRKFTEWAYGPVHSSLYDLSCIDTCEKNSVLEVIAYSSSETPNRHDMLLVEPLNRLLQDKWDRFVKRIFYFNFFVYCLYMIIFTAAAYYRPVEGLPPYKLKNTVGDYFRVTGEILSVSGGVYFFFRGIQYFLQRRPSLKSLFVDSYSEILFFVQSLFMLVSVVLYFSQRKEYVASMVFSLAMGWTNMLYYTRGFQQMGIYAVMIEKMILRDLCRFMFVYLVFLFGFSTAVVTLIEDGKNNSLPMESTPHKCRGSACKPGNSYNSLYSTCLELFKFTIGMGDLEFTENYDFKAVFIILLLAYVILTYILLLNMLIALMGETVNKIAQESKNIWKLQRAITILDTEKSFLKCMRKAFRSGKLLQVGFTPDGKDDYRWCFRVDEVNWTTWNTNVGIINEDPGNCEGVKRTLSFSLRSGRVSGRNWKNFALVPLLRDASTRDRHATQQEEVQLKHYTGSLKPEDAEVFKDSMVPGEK
For the molecule `CC(C)(C)c1ccc(Nc2ncnc3c2CCN(c2ncccc2C(F)(F)F)CC3)cc1` [Example 1, (4-tert-Butyl-phenyl)-[7-(3-trifluoromethyl-pyridin-2-yl)-6,7,8,9-tetrahydro-5H-pyrimido[4,5-d]azepin-4-yl]-amine], the IC50 is 90 nM.

For the molecule `FC(F)(F)c1ccc(Nc2ncnc3c2CCN(c2ncccc2C(F)(F)F)CC3)cc1` [Example 2, (4-Trifluoromethyl-phenyl)-[7-(3-trifluoromethyl-pyridin-2-yl)-6,7,8,9-tetra-hydro-5H-pyrimido[4,5-d]azepin-4-yl]-amine], the IC50 came out at 790 nM.

In the case of `CC(C)(C)c1ccc(Nc2nc(C3CC3)nc3c2CCN(c2ncccc2C(F)(F)F)CC3)cc1` [Example 3, (4-tert-Butyl-phenyl)-[2-cyclopropyl-7-(3-trifluoromethyl-pyridin-2-yl)-6,7,8,9-tetrahydro-5H-pyrimido[4,5-d]azepin-4-yl]-amine], the IC50 worked out at 95 nM.

Regarding `FC(F)(F)c1cccnc1N1CCc2nc(C3CC3)nc(Nc3ccc(Cl)cc3)c2CC1` [Example 4, (4-Chloro-phenyl)-[2-cyclopropyl-7-(3-trifluoromethyl-pyridin-2-yl)-6,7,8,9-tetrahydro-5H-pyrimido[4,5-d]azepin-4-yl]-amine], the half-inhibitory concentration (IC50) was determined as 500 nM.

`FC(F)(F)c1ccc(Nc2nc(C3CC3)nc3c2CCN(c2ncccc2C(F)(F)F)CC3)cc1` [Example 5, [2-Cyclopropyl-7-(3-trifluoromethyl-pyridin-2-yl)-6,7,8,9-tetrahydro-5H-pyrimido[4,5-d]azepin-4-yl]-(4-trifluoromethyl-phenyl)-amine]: the IC50 turned out to be 150 nM.

For `CC(C)(C)c1ccc(Nc2nc(-c3ccccc3)nc3c2CCN(c2ncccc2C(F)(F)F)CC3)cc1` [Example 6, (4-tert-Butyl-phenyl)-[2-phenyl-7-(3-trifluoromethyl-pyridin-2-yl)-6,7,8,9-tetrahydro-5H-pyrimido[4,5-d]azepin-4-yl]-amine], the IC50 worked out at 490 nM.

In the case of `FC(F)(F)c1ccc(Nc2nc(-c3ccccc3)nc3c2CCN(c2ncccc2C(F)(F)F)CC3)cc1` [Example 7, [2-Phenyl-7-(3-trifluoromethyl-pyridin-2-yl)-6,7,8,9-tetrahydro-5H-pyrimido[4,5-d]azepin-4-yl]-(4-trifluoromethyl-phenyl)-amine], the IC50 was 140 nM.

For `CC(C)c1nc2c(c(Nc3ccc(C(C)(C)C)cc3)n1)CCN(c1ncccc1C(F)(F)F)CC2` [Example 8, (4-tert-Butyl-phenyl)-[2-isopropyl-7-(3-trifluoromethyl-pyridin-2-yl)-6,7,8,9-tetrahydro-5H-pyrimido[4,5-d]azepin-4-yl]-amine], the IC50 came to 25 nM.

Consider `CC(C)c1nc2c(c(Nc3cccc(C(F)(F)F)c3)n1)CCN(c1ncccc1C(F)(F)F)CC2` [Example 10, [2-Isopropyl-7-(3-trifluoromethyl-pyridin-2-yl)-6,7,8,9-tetrahydro-5H-pyrimido[4,5-d]azepin-4-yl]-(3-trifluoromethyl-phenyl)-amine], for which the 50% inhibitory concentration (IC50) is 930 nM.

Still in this assay, the particulars now being: read-out: Rat IC50; hydrochloride salt.
For the molecule `CC(C)(C)c1ccc(Nc2ncnc3c2CCN(c2ncccc2C(F)(F)F)CC3)cc1` [Example 1A, (4-tert-Butyl-phenyl)-[7-(3-trifluoromethyl-pyridin-2-yl)-6,7,8,9-tetrahydro-5H-pyrimido[4,5-d]azepin-4-yl]-amine hydrochloride salt], the IC50 is 49 nM.

Take `FC(F)(F)c1ccc(Nc2ncnc3c2CCN(c2ncccc2C(F)(F)F)CC3)cc1` [Example 2A, (4-Trifluoromethyl-phenyl)-[7-(3-trifluoromethyl-pyridin-2-yl)-6,7,8,9-tetra-hydro-5H-pyrimido[4,5-d]azepin-4-yl]-amine hydrochloride salt]: the half-inhibitory concentration (IC50) is 420 nM.

Consider `FC(F)(F)c1ccc(Nc2nc(C3CC3)nc3c2CCN(c2ncccc2C(F)(F)F)CC3)cc1` [Example 5A, [2-Cyclopropyl-7-(3-trifluoromethyl-pyridin-2-yl)-6,7,8,9-tetrahydro-5H-pyrimido[4,5-d]azepin-4-yl]-(4-trifluoromethyl-phenyl)-amine hydrochloride salt], for which the IC50 turned out to be 190 nM.
